Laboratory results: PubChem BioAssay (NCI)
“And” between values parts separate entries of the source, which are not always exact repeats. Equal values may be shown once.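 A five-concentration, 48-hour dose response in 96-well plates underlies each endpoint, interpolated linearly between surrounding concentrations. The concentration for 50% growth inhibition is given as GI50. Definition used: TGI = concentration required for complete inhibition of growth.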

Experiments:
Assay in all cases: NCI anticancer screen, dose series, 48 h
U251 CNS = system: U251 CNS
SNB-75 CNS = system: SNB-75 CNS
SF-268 CNS = system: SF-268 CNS
SN12C renal = system: SN12C renal
K-562 leukemia = system: K-562 leukemia
NCI-H522 lung = system: NCI-H522 lung
NCI-H226 lung = system: NCI-H226 lung
SK-MEL-2 melanoma = system: SK-MEL-2 melanoma
SNB-19 CNS = system: SNB-19 CNS
UO-31 renal = system: UO-31 renal

SMILES | GI50 (U251 CNS) | GI50 (SNB-75 CNS) | TGI (SNB-75 CNS) | GI50 (SF-268 CNS) | TGI (SF-268 CNS) | GI50 (SN12C renal) | TGI (SN12C renal) | GI50 (K-562 leukemia) | GI50 (NCI-H522 lung) | TGI (NCI-H522 lung) [µM] | GI50 (NCI-H226 lung) | TGI (NCI-H226 lung) [µM] | GI50 (SK-MEL-2 melanoma) | TGI (SK-MEL-2 melanoma) | GI50 (SNB-19 CNS) | TGI (SNB-19 CNS) | GI50 (UO-31 renal) | TGI (UO-31 renal) | TGI (U251 CNS) | TGI (K-562 leukemia) [µM]
Nc1cc(-c2cccc(OC(F)(F)F)c2)nc2ccc(N3CCCC3)cc12 | 0.041 µM and 0.0391 µM and 0.0371 µM | 0.0427 µM and 0.0525 µM and 0.0495 µM | 12.2 µM and > 100 µM and > 64.4 µM | 0.0819 µM and 0.0837 µM and 0.0784 µM | 22 µM and > 100 µM | 0.113 µM and 0.0716 µM and 0.0692 µM | 19.7 µM and > 100 µM | 0.0298 µM and 0.0175 µM and 0.0176 µM | 0.0394 µM and 0.0351 µM and 0.0297 µM | 0.986 | 0.238 µM and 0.237 µM | > 100 | 0.4 µM and 0.0887 µM and 0.787 µM | 12.8 µM and > 100 µM | 0.0458 µM and 0.0431 µM and 0.0437 µM | 26.9 µM and > 100 µM | 0.119 µM and 0.15 µM and 0.0758 µM | 17.7 µM and > 100 µM |  | 
O=C1NC(=S)NC(=O)C1=Cc1cccc2cc3ccccc3cc12 |  |  | 3.7 µM |  | 4.73 µM |  | 4.9 µM |  |  | 4.36 |  | 4.62 |  | 4.1 µM |  | 5.32 µM |  | 3.94 µM | 3.36 µM | > 24
Cc1cc(-c2nnc(N)nc2-c2ccc(F)cc2)cc(Cl)n1 | > 100 µM | 54.3 µM | > 100 µM | > 100 µM | > 100 µM | > 100 µM | > 100 µM | 59 µM | 55.9 µM | > 100 | 46.9 µM | > 100 | > 100 µM | > 100 µM | > 100 µM | > 100 µM | 24.3 µM | > 100 µM | > 100 µM | > 100
COc1ccc(-c2nc3ncccn3c2/C=C/C(=O)c2cc(OC)c(OC)c(OC)c2)cc1 | 1.29 µM | 1.89 µM | 5.05 µM | 2.36 µM | 9.62 µM | 2.56 µM | 35.1 µM | 2.63 µM | 1.66 µM | 3.89 | 2.28 µM | 6.92 | 1.87 µM | 4.69 µM | 3.01 µM | 10.3 µM | 0.514 µM | 4.17 µM | 4.26 µM | > 100
Cc1cc2cc3c(C)cc(=O)oc3c(C)c2o1 |  |  | > 100 µM |  | > 100 µM |  | > 100 µM |  |  | > 100 |  | > 100 |  | > 100 µM |  | > 100 µM |  | > 100 µM | > 100 µM | > 100
O=[N+]([O-])c1ccc(N=Nc2c(O)ccc3ccccc23)cc1 | 22.5 µM and > 100 µM | 39.3 µM and > 100 µM | > 100 µM | 35.9 µM and > 100 µM | > 100 µM |  | > 100 µM |  | 35.9 µM | > 100 | 35.4 µM and > 100 µM | > 100 |  | > 100 µM |  | > 100 µM |  | > 100 µM | 67 µM and > 100 µM | > 100
C=CCC(C(=O)O)c1ccccc1 (stereo not drawn) |  |  | > 100 µM |  | > 100 µM |  | > 100 µM |  |  | > 100 |  | > 100 |  | > 100 µM |  | > 100 µM |  | > 100 µM | > 100 µM | > 100
COC1OC(C)C(O)CC1OS(=O)(=O)c1ccc(C)cc1 (stereo not drawn) |  |  | > 100 µM |  | > 100 µM |  | > 100 µM |  |  | > 100 |  | > 100 |  | > 100 µM |  | > 100 µM |  | > 100 µM | > 100 µM | > 100
CC(=O)N/C(=C\c1cccc([N+](=O)[O-])c1)c1nc2c3c(ccc2[nH]1)C(=O)c1ccccc1C3=O |  |  | > 100 µM |  | > 100 µM |  | > 100 µM |  |  | 99.8 |  | > 100 |  | > 100 µM |  | > 100 µM |  | > 69.3 µM | > 100 µM | > 100
